According to patent US20250114389A1, “NUCLEOSIDES AND NUCLEOTIDES ANALOGS AS ANTIVIRAL AGENTS” (Emory University, priority 2021, published 2025):

What was measured:
SARS-CoV-2 [1] = assay: Anti-SARS-CoV-2 activity in Vero cells (virus yield inhibition); format: cell-based
[2] = Cytotoxicity in Vero cells; settings: African green monkey, Vero kidney cells
[3] = Cytotoxicity in PBM cells; format: cell-based, human; settings: human
Procedure: (§1) The toxicity of the compounds was assessed in Vero, human PBM, CEM (human lymphoblastoid), MT-2, and HepG2 cells, as described previously (see Schinazi R. F., Sommadossi J.-P., Saalmann V., Cannon D. L., Xie M.-Y., Hart G. C., Smith G. A. & Hahn E. F. Antimicrob. Agents Chemother. 1990, 34, 1061-67). Cycloheximide was included as positive cytotoxic control, and untreated cells exposed to solvent were included as negative controls. The cytotoxicity IC50 was obtained from the concentration-response curve using the median effective method described previously (see Chou T.-C. & Talalay P. Adv. Enzyme Regul. 1984, 22, 27-55; Belen'kii M. S. & Schinazi R. F. Antiviral Res. 1994, 25, 1-11).

SARS-CoV-2 [4] = assay: Anti-SARS-CoV-2 activity in Caco2 cells (virus yield inhibition); settings: for EC50: Severe acute respiratory syndrome coronavirus 2, Caco-2, read-out: Anti-SARS-CoV-2 Activity (Caco2) EC50; for EC90: Severe acute respiratory syndrome coronavirus 2, Caco-2, read-out: Anti-SARS-CoV-2 Activity (Caco2) EC90
SARS-CoV-2 [5] = assay: Anti-SARS-CoV-2 activity in Calu3 cells (virus yield inhibition); format: cell-based; settings: Severe acute respiratory syndrome coronavirus 2, Calu-3, Table 1
[6] = Cytotoxicity in Huh7 cells; format: cell-based; settings: human
[7] = Cytotoxicity in CEM cells; format: cell-based, human; settings: human, CEM lymphoblastoid cells
Procedure: as §1

Vero cells = assay: Cytotoxicity in Vero cells; settings: read-out: Cytotoxicity CC50 Vero; Vero cells
[8] = test system: CEM (human lymphoblastoid) cells; assay: Cytotoxicity in CEM cells; format: cell-based
Procedure: as §1

Calu3 cells = settings: read-out: Cytotoxicity CC50 Calu3
Caco2 cells = settings: read-out: Cytotoxicity CC50 Caco2
[9] = format: in vitro ADME; settings: hamster, 10 μM
Procedure: An aliquot of 450 μL of human, mouse or hamster plasma were exposed to 10 μM of compound and incubated at 37° C. At 0, 5, 15, 30, 60, 90 and 120 min, 50 μL of plasma sample was mixed with 200 μL of ice-cold methanol (70%). 50 μL supernatant was dried and reconstituted in 100 μL H2O. Propantheline bromide was used as positive control. The supernatant was then subjected to LC-MS analysis (LC-MS condition: Instrument: Thermo TSQ Quantiva. Column: Kinetex […] (50×2.1 mm, […]). LC buffers: A): 0.1% formic acid, and B): acetonitrile. MRM methods: (269.2-112 positive), Indinavir (IS, 614.4-421.2 positive, IS)). The stability results are shown in FIGS. 2-4 (human plasma, mouse plasma and hamster plasma, respectively). Compound A is stable in human and mouse plasma up to 2 hours and stable up to […] in hamster plasma. Compound 23 was converted to compound A in hamster plasma in less than 5 min.

SARS-CoV-2 [10] = assay: Anti-SARS-CoV-2 activity in HAE-ALI culture; format: cell-based; settings: Severe acute respiratory syndrome coronavirus 2; HAE air-liquid interface
SARS-CoV-2 [11] = assay: Anti-SARS-CoV-2 activity in Calu3 ALI culture; format: cell-based; settings: Severe acute respiratory syndrome coronavirus 2, Calu-3; Calu3 air-liquid interface
Huh7 cells = assay: Cytotoxicity in Huh7 cells; format: cell-based
human PBM cells = assay: Cytotoxicity in PBM cells; format: cell-based
Procedure: as §1

Omicron [12] = assay: Anti-Omicron activity in Calu-3; format: cell-based, SARS-CoV-2; settings: Severe acute respiratory syndrome coronavirus 2
Omicron [13] = assay: microbe, parasite or virus in culture
[14] = Severe acute respiratory syndrome coronavirus 2, Table 2, read-out: Anti-SARS-CoV-2 activity in Vero cells EC50
[15] = Severe acute respiratory syndrome coronavirus 2, Table 1, read-out: Anti-SARS-CoV-2 Activity (Vero) EC50
[16] = Severe acute respiratory syndrome coronavirus 2, Table 1, read-out: Anti-SARS-CoV-2 Activity (Vero) EC90
[17] = Severe acute respiratory syndrome coronavirus 2, Table 2, read-out: Anti-SARS-CoV-2 activity in Vero cells EC90

N#C[C@@]1(c2ccc3c(N)ncnn23)O[C@H](CO)C(O)C1O (stereo partly shown)
EC50 (SARS-CoV-2 [1]; [14]): < 10 µM

CC(C)[C@H](N)C(=O)OC1C(O)[C@](C#N)(n2ccc(N)nc2=O)O[C@@H]1CO (stereo partly shown) [drawing 135]
CC50 [2]: 93.5 µM | CC50 [3]: > 100 µM

CC(C)[C@H](N)C(=O)OC1C(O)[C@](C#N)(n2ccc(N)nc2=O)O[C@@H]1CO (stereo partly shown) [drawing 124]
EC50 (SARS-CoV-2 [4]): 3.3 µM | EC90 (SARS-CoV-2 [4]): 8.3 µM | EC50 (SARS-CoV-2 [1]; [15]): 2.3 µM | EC90 (SARS-CoV-2 [1]; [16]): 6.6 µM | EC50 (SARS-CoV-2 [5]): 0.3 µM | EC90 (SARS-CoV-2 [5]): 4.3 µM

N#C[C@@]1(n2ncc(N)nc2=O)O[C@H](CO)C(O)C1O (stereo partly shown)
EC50 (SARS-CoV-2 [1]; [14]): 4 µM | EC90 (SARS-CoV-2 [1]; [17]): 9.8 µM

CC(C)C(=O)OC[C@H]1O[C@@](C#N)(n2ccc(=O)[nH]c2=O)C(O)C1O (stereo partly shown) [drawing 132]
CC50 [6]: 88.9 µM | CC50 [2]: > 100 µM | CC50 [3]: > 100 µM | CC50 [7]: 39 µM

N#C[C@@]1(n2ccc(=O)[nH]c2=O)O[C@H](CO)C(O)C1O (stereo partly shown) [drawing 119]
EC50 (SARS-CoV-2 [4]): 0.02 µM | EC90 (SARS-CoV-2 [4]): 0.2 µM | EC50 (SARS-CoV-2 [1]; [15]): 4.7 µM | EC90 (SARS-CoV-2 [1]; [16]): 8.5 µM | EC50 (SARS-CoV-2 [5]): 0.08 µM | EC90 (SARS-CoV-2 [5]): 0.7 µM

CC(C)OC(=O)[C@H](C)N[P@](=O)(OC[C@H]1O[C@@](C#N)(n2ccc(N)nc2=O)C(O)C1O)Oc1ccccc1 (stereo partly shown) [drawing 120]
EC50 (SARS-CoV-2 [4]): 0.7 µM | EC90 (SARS-CoV-2 [4]): 2.1 µM | EC50 (SARS-CoV-2 [1]; [15]): > 10 µM | EC90 (SARS-CoV-2 [1]; [16]): > 10 µM | EC50 (SARS-CoV-2 [5]): > 10 µM | EC90 (SARS-CoV-2 [5]): > 10 µM

N#C[C@]1(c2ccc3c(N)ncnn23)O[C@@H](CO)C(O)C1O (stereo partly shown)
EC50 (SARS-CoV-2 [1]; [14]): > 10 µM

O=c1nc(NO)ccn1[C@@H]1O[C@H](CO)[C@@H](O)[C@H]1O [NHC, N^4-hydroxycytidine, reference compound]
EC50 (SARS-CoV-2 [4]): 1 µM | EC90 (SARS-CoV-2 [4]): > 10 µM | EC50 (SARS-CoV-2 [1]; [15]): 0.2 µM | EC90 (SARS-CoV-2 [1]; [16]): 0.42 µM | CC50 (Vero cells): 16.5 µM | EC50 (SARS-CoV-2 [5]): 0.6 µM | EC90 (SARS-CoV-2 [5]): 2 µM | CC50 [8]: 2.6 µM

N#C[C@@]1(n2ccc(=O)[nH]c2=O)O[C@H](CO)C(O)C1O (stereo partly shown) [drawing 130]
CC50 [6]: > 100 µM | CC50 [2]: > 100 µM | CC50 [3]: > 100 µM | CC50 [7]: 12.1 µM

C[C@@H]1C[C@@H]([C@H](O)CC2CC(=O)NC(=O)C2)C(=O)[C@@H](C)C1 [Cyclohexamide]
CC50 (Calu3 cells): 10 µM | CC50 (Caco2 cells): 10 µM

CCCCCCCC(=O)OC[C@H]1O[C@@](C#N)(n2ccc(N)nc2=O)C(O)C1O (stereo partly shown) [drawing 134]
CC50 [6]: 77.8 µM | CC50 [2]: 45.7 µM | CC50 [3]: > 100 µM | CC50 [7]: 3.7 µM

CC(C)C(=O)OC[C@H]1O[C@@](C#N)(n2ccc(N)nc2=O)[C@H](O)[C@@H]1O [Compound 23, ((2R,3S,4R,5R)-5-(4-Amino-2-oxopyrimidin-1(2H)-yl)-5-cyano-3,4-dihydroxytetrahydro-furan-2-yl)methyl isobutyrate]
time for conversion to compound A in plasma [9]: less than 5 min

CC(C)C(=O)OC[C@H]1O[C@@](C#N)(n2ccc(N)nc2=O)C(O)C1O (stereo partly shown) [drawing 133]
CC50 [6]: > 100 µM | CC50 [2]: 73.8 µM | CC50 [3]: 63.1 µM | CC50 [7]: 15.8 µM

CCC(CC)COC(=O)[C@H](C)N[P@](=O)(OC[C@@H]1O[C@](C#N)(c2ccc3c(N)ncnn23)C(O)C1O)Oc1ccccc1 (stereo partly shown)
EC50 (SARS-CoV-2 [1]; [14]): < 10 µM

CC(C)C(=O)OC[C@H]1O[C@@](C#N)(n2ccc(=O)[nH]c2=O)C(O)C1O (stereo partly shown) [drawing 121]
EC50 (SARS-CoV-2 [4]): 2.1 µM | EC90 (SARS-CoV-2 [4]): 5.7 µM | EC50 (SARS-CoV-2 [1]; [15]): > 10 µM | EC50 (SARS-CoV-2 [5]): 0.2 µM | EC90 (SARS-CoV-2 [5]): 0.7 µM

CCC(CC)COC(=O)[C@H](C)N[P@](=O)(OC[C@H]1O[C@@](C#N)(c2ccc3c(N)ncnn23)[C@H](O)[C@@H]1O)Oc1ccccc1 [Remdesivir, reference compound]
EC50 (SARS-CoV-2 [4]): 0.004 µM | EC90 (SARS-CoV-2 [4]): 0.04 µM | EC90 (SARS-CoV-2 [10]): 1.2 µM | EC50 (SARS-CoV-2 [1]; [15]): 1 µM | EC90 (SARS-CoV-2 [1]; [16]): 3.5 µM | EC50 (SARS-CoV-2 [1]; [14]): 1.2 µM | EC90 (SARS-CoV-2 [1]; [17]): 3.6 µM | EC50 (SARS-CoV-2 [11]): 0.9 µM | EC90 (SARS-CoV-2 [11]): 4.6 µM | CC50 (Huh7 cells): 1.5 µM | CC50 [2]: > 100 µM | CC50 (human PBM cells): 6.4 µM | EC90 (SARS-CoV-2 [5]): 0.6 µM | CC50 [8]: 12 µM

CC(C)C(=O)OC[C@H]1O[C@@](C#N)(n2ccc(N)nc2=O)C(O)C1O (stereo partly shown) [drawing 122]
EC50 (SARS-CoV-2 [4]): 0.5 µM | EC90 (SARS-CoV-2 [4]): 2.5 µM | EC50 (SARS-CoV-2 [1]; [15]): 1.2 µM | EC90 (SARS-CoV-2 [1]; [16]): 2.2 µM | EC50 (SARS-CoV-2 [5]): 1.2 µM | EC90 (SARS-CoV-2 [5]): 4 µM

CC(C)OC(=O)[C@H](C)N[P@](=O)(OC[C@H]1O[C@@](C#N)(n2ccc(N)nc2=O)C(O)C1O)Oc1ccccc1 (stereo partly shown) [drawing 131]
CC50 [6]: > 100 µM | CC50 [2]: > 100 µM | CC50 [3]: > 100 µM | CC50 [7]: > 100 µM

CCCCCCCC(=O)OC[C@H]1O[C@@](C#N)(n2ccc(N)nc2=O)C(O)C1O (stereo partly shown) [drawing 123]
EC50 (SARS-CoV-2 [4]): 0.7 µM | EC90 (SARS-CoV-2 [4]): 1.7 µM | EC50 (SARS-CoV-2 [1]; [15]): 0.4 µM | EC90 (SARS-CoV-2 [1]; [16]): 1.1 µM | EC50 (SARS-CoV-2 [5]): 0.2 µM | EC90 (SARS-CoV-2 [5]): 1.2 µM

N#C[C@@]1(n2ccc(=O)[nH]c2=O)O[C@H](CO)C(O)C1O (stereo partly shown) [drawing 137]
EC50 (Omicron [12]): 3.8 µM | EC90 (Omicron [12]): > 10 µM | EC50 (Omicron [13]; Severe acute respiratory syndrome coronavirus 2, Caco-2, read-out: Anti-Omicron Activity (Caco-2) EC50): > 10 µM | EC90 (Omicron [13]; Severe acute respiratory syndrome coronavirus 2, Caco-2, read-out: Anti-Omicron Activity (Caco-2) EC90): > 10 µM
